“And” between values parts separate entries of the source, which are not always exact repeats. Equal entries are not always repeated.

Broadly, the ΔTm is the change in melting temperature against a reference sample.

One series is described as follows: Solubility (qualitative). The format is physicochemical.
The target in series [1] is T1, PB1(5) (Homo sapiens, UniProt Q86U86).
T1 construct: the fifth bromodomain of PB1 (PB1(5)); made in house
Kind of series: DSF Tm shift assay, PB1(5) bromodomain. The following applies: for PB1(5) Tm (Supplementary Table 2): average of three replicates and standard deviation. In kind it is binding.

The next series deals with T2, BRD9A (Homo sapiens, UniProt Q9H8M2).
T2 construct: Bromodomain DSF Tm assays were performed; made in house
T2 sequence (Q9H8M2 136-240 limits assumed): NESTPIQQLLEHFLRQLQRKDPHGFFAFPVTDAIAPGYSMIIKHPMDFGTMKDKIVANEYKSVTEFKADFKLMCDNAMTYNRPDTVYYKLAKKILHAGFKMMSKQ
Put plainly: DSF Tm shift assay, BRD9A. In kind it is binding. The following applies: single measurement. As for the experimental part:
(§1) Protein Expression and Purification.
(§2) Proteins were cloned, expressed, and purified as previously described.1 […]
(§3) Bromodomain DSF Tm assays were performed using a Mx3005p real-time PCR machine (Agilent) and low profile 96-well PCR plates (AB-0700, Life Technologies). Protein was buffered in 10 mM HEPES, pH 7.5, 500 mM NaCl and assayed at a concentration of 2 µM with 10 µM inhibitor concentration and 1:1000 SyproOrange (Invitrogen). Excitation and emission filters were set to 465 and 590 nm respectively. The temperature was raised by 3 °C per 1 min from 25–95 °C, and fluorescence readers were taken at each interval. Data analysis was carried out as described previously.2
(§4) AlphaScreen Displacement Assay.
(§5) AlphaScreen assays were based on a reported protocol, with minor variations.3 In place of a biotinylated peptide, a biotinylated ligand was used at 25 nM final concentration.
(§6) Isothermal Calorimetry Experiments.
(§7) Calorimetric experiments were performed on a VP-ITC micro-calorimeter (MicroCalTM, LLC Northampton, MA). Protein solutions were buffer exchanged by dialysis into buffer 20 mM Hepes pH 7.5, 150 mM NaCl, and 0.5 mM TCEP. All measurements were carried out at 293.15 K while stirring at 286 rpm. The micro syringe was loaded with protein solutions ranging from […]

The target in series [2] is T1, PB1(5). Put plainly: Isothermal calorimetry (ITC), PB1(5) bromodomain. In kind it is binding. The settings on record: for K × 10^6 (M^–1): 293.15 K.
The target of the next series is T3, BRPF1B (Homo sapiens, UniProt P55201).
T3 construct: Bromodomain DSF Tm assays were performed; made in house
T3 sequence (P55201 628-732 limits assumed): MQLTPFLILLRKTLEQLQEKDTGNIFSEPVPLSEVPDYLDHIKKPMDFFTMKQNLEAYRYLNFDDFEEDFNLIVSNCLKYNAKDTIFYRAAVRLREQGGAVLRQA
Put plainly: DSF Tm shift assay, BRPF1B. The format is binding. The settings on record: single measurement. As for the experimental part: as §1, §2, §3, §4, §5, §6, §7

The target of another series is T4, CECR2A (Homo sapiens, UniProt Q9BXF3).
T4 construct: Bromodomain DSF Tm assays were performed; made in house
Put plainly: DSF Tm shift assay, CECR2A. The format is binding. The settings on record: single measurement. As for the experimental part: as §1, §2, §3, §4, §5, §6, §7

The mark [3] stands for this setting: 10 μM inhibitor, average of three replicates.

T1 sequence (Q86U86 653-774): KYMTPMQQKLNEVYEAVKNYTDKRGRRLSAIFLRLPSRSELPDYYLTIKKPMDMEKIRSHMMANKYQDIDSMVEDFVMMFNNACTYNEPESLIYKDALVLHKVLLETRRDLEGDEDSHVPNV
T4 sequence (Q9BXF3 434-538 limits assumed): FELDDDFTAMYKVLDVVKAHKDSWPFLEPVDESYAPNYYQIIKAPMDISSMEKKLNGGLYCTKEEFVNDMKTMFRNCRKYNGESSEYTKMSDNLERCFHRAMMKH

Turning to `O=c1nc2n(c3ccccc13)CC/C2=C\c1ccoc1` [Compound 1], the aqueous solubility entry in “Solubility (qualitative)” is reported as “poor”.
In the case of `O=c1nc2n(c3ccccc13)CCC2` [Compound 4, 2,3-Dihydropyrrolo[1,2-a]quinazolin-5(1H)-one], at PB1(5) [1] (setting [3]), the “PB1(5) ΔTm” value was “no interaction” and the thermal shift (ΔTm) at 10 µM was determined as 0 °C.
Turning to `CCCN(/C=C1\CCn2c1nc(=O)c1ccccc12)CCC` [Compound 7, (E)-3-((Dipropylamino)methylene)-2,3-dihydropyrrolo[1,2-a]quinazolin-5(1H)-one], at PB1(5) [1] (setting [3]), the “PB1(5) ΔTm” value is recorded as “moderate activity”.
As to `CC(C)N(/C=C1\CCn2c1nc(=O)c1ccccc12)C(C)C` [Compound 8, (E)-3-((Diisopropylamino)methylene)-2,3-dihydropyrrolo[1,2-a]quinazolin-5(1H)-one], at PB1(5) [1] (setting [3]), the “PB1(5) ΔTm” value is “loss of binding”.
On to `O=c1nc2n(c3ccccc13)CC/C2=C\N1CCCC1` [Compound 9, (E)-3-(Pyrrolidin-1-ylmethylene)-2,3-dihydropyrrolo[1,2-a]quinazolin-5(1H)-one], for which the “PB1(5) Tm (Supplementary Table 2)” value on PB1(5) [1] was 4.3 ± 0.4 °C. Further, the “BRD9A Tm” value on BRD9A was found to be 1.0 °C. On PB1(5) [2], the TΔS is 4.7 kcal/mol and 4.717 kcal/mol; the ΔG is recorded as -7.577 kcal/mol; the “K × 10^6 (M^–1)” value is recorded as 0.44 × 10^6 M^–1. Besides, the “BRPF1B Tm” value at BRPF1B turned out to be 0.0 °C. Moreover, on CECR2A, the “CECR2A Tm” value is 0.2 °C.
With `O=c1nc2n(c3ccccc13)CC/C2=C\N1CCCCC1` [Compound 10, (E)-3-(Piperidin-1-ylmethylene)-2,3-dihydropyrrolo[1,2-a]quinazolin-5(1H)-one], the “BRD9A Tm” value at BRD9A was determined as 0.2 °C. Moreover, on PB1(5) [2], the TΔS was 5.3 kcal/mol and 5.274 kcal/mol; the ΔG was -7.926 kcal/mol; the “K × 10^6 (M^–1)” value was 0.80 × 10^6 M^–1. Also, the “BRPF1B Tm” value at BRPF1B turned out to be 0.0 °C. Also, the “CECR2A Tm” value at CECR2A was found to be 0.1 °C.
Consider `O=c1nc2n(c3ccccc13)CC/C2=C\N1CCOCC1` [Compound 11], for which the “BRD9A Tm” value on BRD9A worked out at 0.8 °C. Besides, the “BRPF1B Tm” value at BRPF1B worked out at 0.0 °C. In addition, the “CECR2A Tm” value on CECR2A was 0.1 °C.
With `CN1CCN(/C=C2\CCn3c2nc(=O)c2ccccc23)CC1` [Compound 12], at PB1(5) [1], the “PB1(5) Tm (Supplementary Table 2)” value came to 5.8 ± 0.1 °C. The “BRD9A Tm” value at BRD9A was found to be 0.5 °C. The “BRPF1B Tm” value at BRPF1B came to 0.2 °C. Besides, the “CECR2A Tm” value on CECR2A was 0.3 °C.
On to `CCN1CCN(/C=C2\CCn3c2nc(=O)c2ccccc23)CC1` [Compound 13], for which, on PB1(5) [1], the “PB1(5) Tm (Supplementary Table 2)” value amounted to 5.0 ± 0.5 °C. At BRD9A, the “BRD9A Tm” value amounted to 0.8 °C. The “BRPF1B Tm” value at BRPF1B turned out to be 0.0 °C. Also, the “CECR2A Tm” value on CECR2A was 0.1 °C.
On to `CC(C)(C)OC(=O)N1CCN(/C=C2\CCn3c2nc(=O)c2ccccc23)CC1` [Compound 14], for which the “PB1(5) Tm (Supplementary Table 2)” value on PB1(5) [1] was determined as 4.7 ± 0.6 °C. Also, at BRD9A, the “BRD9A Tm” value came to 0.7 °C. For the same compound, the “BRPF1B Tm” value at BRPF1B was 0.2 °C. For the same compound, the “CECR2A Tm” value on CECR2A was 0.1 °C.
As to `CN1CCCN(/C=C2\CCn3c2nc(=O)c2ccccc23)CC1` [Compound 15], the “PB1(5) Tm (Supplementary Table 2)” value on PB1(5) [1] came out at 3.5 ± 0.2 °C. Besides, the “BRD9A Tm” value at BRD9A is 0.0 °C. For the same compound, the “BRPF1B Tm” value at BRPF1B was found to be 0.2 °C. The “CECR2A Tm” value at CECR2A was 0.0 °C.

Source of the values: paper PMC4920105, “Identification and Development of 2,3-Dihydropyrrolo[1,2-a]quinazolin-5(1H)-one Inhibitors Targeting Bromodomains within the Switch/Sucrose Nonfermenting Complex” (Journal of Medicinal Chemistry, 2016).
